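Values below derive from 48-hour exposures of cells grown in 96-well plates, with endpoints linearly interpolated between the two concentrations bracketing the appropriate inhibition level. GI50 marks 50% less growth. TGI marks complete inhibition of growth.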
Tests used:
Test in all cases: DTP human tumour cell line panel, 48 h; in the data active = GI50 below about 0.43 µM; inactive = the rest
ACHN renal = tested on: ACHN renal
KM12 colon = tested on: KM12 colon
MCF7 breast = tested on: MCF7 breast
CCRF-CEM leukemia = tested on: CCRF-CEM leukemia
IGROV1 ovarian = tested on: IGROV1 ovarian
NCI-H522 lung = tested on: NCI-H522 lung
SK-OV-3 ovarian = tested on: SK-OV-3 ovarian
SN12C renal = tested on: SN12C renal
OVCAR-8 ovarian = tested on: OVCAR-8 ovarian
DU-145 prostate = tested on: DU-145 prostate
OVCAR-3 ovarian = tested on: OVCAR-3 ovarian
OVCAR-5 ovarian = tested on: OVCAR-5 ovarian
SK-MEL-2 melanoma = tested on: SK-MEL-2 melanoma
A498 renal = tested on: A498 renal
MDA-MB-435 = tested on: MDA-MB-435
SF-539 CNS = tested on: SF-539 CNS
UACC-257 melanoma = tested on: UACC-257 melanoma
NCI/ADR-RES ovarian = tested on: NCI/ADR-RES ovarian
PC-3 prostate = tested on: PC-3 prostate
SK-MEL-5 melanoma = tested on: SK-MEL-5 melanoma
U251 CNS = tested on: U251 CNS
HOP-92 NSCLC = tested on: HOP-92 NSCLC
HS 578T breast = tested on: HS 578T breast
RXF 393 renal = tested on: RXF 393 renal
UACC-62 melanoma = tested on: UACC-62 melanoma
UO-31 renal = tested on: UO-31 renal
MDA-MB-231 breast = tested on: MDA-MB-231 breast
SNB-75 CNS = tested on: SNB-75 CNS
HT29 colon = tested on: HT29 colon
A549 NSCLC = tested on: A549 NSCLC
NCI-H226 lung = tested on: NCI-H226 lung
SW-620 colon = tested on: SW-620 colon
OVCAR-4 ovarian = tested on: OVCAR-4 ovarian
HOP-62 NSCLC = tested on: HOP-62 NSCLC
SF-295 CNS = tested on: SF-295 CNS
SNB-19 CNS = tested on: SNB-19 CNS
MALME-3M melanoma = tested on: MALME-3M melanoma
MOLT-4 leukemia = tested on: MOLT-4 leukemia
786-0 renal = tested on: 786-0 renal
HL-60(TB) leukemia = tested on: HL-60(TB) leukemia
M14 melanoma = tested on: M14 melanoma
HCC-2998 colon = tested on: HCC-2998 colon
TK-10 renal = tested on: TK-10 renal
NCI-H460 lung = tested on: NCI-H460 lung
SK-MEL-28 melanoma = tested on: SK-MEL-28 melanoma
SF-268 CNS = tested on: SF-268 CNS
K-562 leukemia = tested on: K-562 leukemia
HCT-116 colon = tested on: HCT-116 colon
SR leukemia = tested on: SR leukemia
NCI-H23 lung = tested on: NCI-H23 lung
COLO 205 colon = tested on: COLO 205 colon
LOX IMVI melanoma = tested on: LOX IMVI melanoma
BT-549 breast = tested on: BT-549 breast

CC(=O)/C=C/c1ccc(OCc2ccc(C(C)(C)C)cc2)cc1
> 1000 µM: TGI (ACHN renal) | TGI (KM12 colon) | TGI (MCF7 breast) | TGI (CCRF-CEM leukemia) | TGI (IGROV1 ovarian) | TGI (NCI-H522 lung) | TGI (SK-OV-3 ovarian) | TGI (SN12C renal) | TGI (OVCAR-8 ovarian) | TGI (DU-145 prostate) | TGI (OVCAR-3 ovarian) | TGI (OVCAR-5 ovarian) | TGI (SK-MEL-2 melanoma) | TGI (A498 renal) | TGI (MDA-MB-435) | TGI (SF-539 CNS) | TGI (UACC-257 melanoma) | TGI (NCI/ADR-RES ovarian) | TGI (PC-3 prostate) | TGI (SK-MEL-5 melanoma) | TGI (U251 CNS) | TGI (HOP-92 NSCLC) | TGI (HS 578T breast) | TGI (RXF 393 renal) | TGI (UACC-62 melanoma) | TGI (UO-31 renal) | TGI (MDA-MB-231 breast) | TGI (SNB-75 CNS) | TGI (HT29 colon) | TGI (A549 NSCLC) | TGI (NCI-H226 lung) | TGI (SW-620 colon) | TGI (OVCAR-4 ovarian) | TGI (HOP-62 NSCLC) | TGI (SF-295 CNS) | TGI (SNB-19 CNS) | TGI (MALME-3M melanoma) | TGI (MOLT-4 leukemia) | TGI (786-0 renal) | TGI (HL-60(TB) leukemia) | TGI (M14 melanoma) | TGI (HCC-2998 colon) | TGI (TK-10 renal) | TGI (NCI-H460 lung) | TGI (SK-MEL-28 melanoma) | TGI (SF-268 CNS)
inactive: GI50 (ACHN renal) > 1000 µM | GI50 (KM12 colon) > 1000 µM | GI50 (MCF7 breast) > 1000 µM | GI50 (CCRF-CEM leukemia) > 1000 µM | GI50 (IGROV1 ovarian) > 1000 µM | GI50 (NCI-H522 lung) > 1000 µM | GI50 (SK-OV-3 ovarian) > 1000 µM | GI50 (SN12C renal) > 1000 µM | GI50 (OVCAR-8 ovarian) > 1000 µM | GI50 (DU-145 prostate) > 1000 µM | GI50 (OVCAR-3 ovarian) > 1000 µM | GI50 (OVCAR-5 ovarian) > 1000 µM | GI50 (SK-MEL-2 melanoma) > 1000 µM | GI50 (A498 renal) > 1000 µM | GI50 (MDA-MB-435) > 1000 µM | GI50 (SF-539 CNS) > 1000 µM | GI50 (UACC-257 melanoma) > 1000 µM | GI50 (NCI/ADR-RES ovarian) > 1000 µM | GI50 (PC-3 prostate) > 1000 µM | GI50 (SK-MEL-5 melanoma) 46.5 µM | GI50 (U251 CNS) > 1000 µM | GI50 (HOP-92 NSCLC) > 1000 µM | GI50 (HS 578T breast) > 1000 µM | GI50 (RXF 393 renal) > 1000 µM | GI50 (UACC-62 melanoma) > 1000 µM | GI50 (UO-31 renal) > 1000 µM | GI50 (MDA-MB-231 breast) > 1000 µM | GI50 (SNB-75 CNS) > 1000 µM | GI50 (HT29 colon) 40.7 µM | GI50 (A549 NSCLC) > 1000 µM | GI50 (NCI-H226 lung) > 1000 µM | GI50 (SW-620 colon) > 1000 µM | GI50 (OVCAR-4 ovarian) > 1000 µM | GI50 (HOP-62 NSCLC) > 1000 µM | GI50 (SF-295 CNS) > 1000 µM | GI50 (SNB-19 CNS) > 1000 µM | GI50 (MALME-3M melanoma) > 1000 µM | GI50 (MOLT-4 leukemia) > 1000 µM | GI50 (786-0 renal) > 1000 µM | GI50 (HL-60(TB) leukemia) > 1000 µM | GI50 (M14 melanoma) > 1000 µM | GI50 (HCC-2998 colon) > 1000 µM | GI50 (TK-10 renal) > 1000 µM | GI50 (NCI-H460 lung) > 1000 µM | GI50 (SK-MEL-28 melanoma) > 1000 µM | GI50 (SF-268 CNS) > 1000 µM

O=C(Nc1ccc(OCc2nnc(-c3ccc(Cl)cc3)o2)c(F)c1)c1ccc(Cl)c(C(F)(F)F)c1
> 50 µM: TGI (ACHN renal) | TGI (K-562 leukemia) | TGI (CCRF-CEM leukemia) | TGI (IGROV1 ovarian) | TGI (SK-OV-3 ovarian) | TGI (SN12C renal) | TGI (OVCAR-8 ovarian) | TGI (DU-145 prostate) | TGI (OVCAR-3 ovarian) | TGI (OVCAR-5 ovarian) | TGI (HCT-116 colon) | TGI (SK-MEL-2 melanoma) | TGI (MDA-MB-435) | TGI (SR leukemia) | TGI (SF-539 CNS) | TGI (UACC-257 melanoma) | TGI (NCI/ADR-RES ovarian) | TGI (SK-MEL-5 melanoma) | TGI (U251 CNS) | TGI (HOP-92 NSCLC) | TGI (HS 578T breast) | TGI (RXF 393 renal) | TGI (UACC-62 melanoma) | TGI (MDA-MB-231 breast) | TGI (SNB-75 CNS) | TGI (HT29 colon) | TGI (A549 NSCLC) | TGI (NCI-H226 lung) | TGI (NCI-H23 lung) | TGI (SW-620 colon) | TGI (COLO 205 colon) | TGI (LOX IMVI melanoma) | TGI (OVCAR-4 ovarian) | TGI (HOP-62 NSCLC) | TGI (SF-295 CNS) | TGI (SNB-19 CNS) | TGI (MALME-3M melanoma) | TGI (MOLT-4 leukemia) | TGI (786-0 renal) | TGI (HL-60(TB) leukemia) | TGI (M14 melanoma) | TGI (HCC-2998 colon) | TGI (TK-10 renal) | TGI (BT-549 breast) | TGI (SK-MEL-28 melanoma) | TGI (SF-268 CNS)
inactive: GI50 (ACHN renal) > 50 µM | GI50 (K-562 leukemia) > 50 µM | GI50 (CCRF-CEM leukemia) > 50 µM | GI50 (IGROV1 ovarian) > 50 µM | GI50 (SK-OV-3 ovarian) > 50 µM | GI50 (SN12C renal) > 50 µM | GI50 (OVCAR-8 ovarian) > 50 µM | GI50 (DU-145 prostate) > 50 µM | GI50 (OVCAR-3 ovarian) > 50 µM | GI50 (OVCAR-5 ovarian) > 50 µM | GI50 (HCT-116 colon) > 50 µM | GI50 (SK-MEL-2 melanoma) > 50 µM | GI50 (MDA-MB-435) > 50 µM | GI50 (SR leukemia) > 50 µM | GI50 (SF-539 CNS) > 50 µM | GI50 (UACC-257 melanoma) > 50 µM | GI50 (NCI/ADR-RES ovarian) > 50 µM | GI50 (SK-MEL-5 melanoma) > 50 µM | GI50 (U251 CNS) > 50 µM | GI50 (HOP-92 NSCLC) > 50 µM | GI50 (HS 578T breast) > 50 µM | GI50 (RXF 393 renal) > 50 µM | GI50 (UACC-62 melanoma) > 50 µM | GI50 (MDA-MB-231 breast) > 50 µM | GI50 (SNB-75 CNS) > 50 µM | GI50 (HT29 colon) > 50 µM | GI50 (A549 NSCLC) > 50 µM | GI50 (NCI-H226 lung) > 50 µM | GI50 (NCI-H23 lung) > 50 µM | GI50 (SW-620 colon) > 50 µM | GI50 (COLO 205 colon) > 50 µM | GI50 (LOX IMVI melanoma) > 50 µM | GI50 (OVCAR-4 ovarian) > 50 µM | GI50 (HOP-62 NSCLC) > 50 µM | GI50 (SF-295 CNS) > 50 µM | GI50 (SNB-19 CNS) > 50 µM | GI50 (MALME-3M melanoma) > 50 µM | GI50 (MOLT-4 leukemia) > 50 µM | GI50 (786-0 renal) > 50 µM | GI50 (HL-60(TB) leukemia) > 50 µM | GI50 (M14 melanoma) > 50 µM | GI50 (HCC-2998 colon) > 50 µM | GI50 (TK-10 renal) > 50 µM | GI50 (BT-549 breast) > 50 µM | GI50 (SK-MEL-28 melanoma) > 50 µM | GI50 (SF-268 CNS) > 50 µM

Clc1cc(Cl)cc(-c2ccc(-c3ccc(/C=N/NC4=NCCN4)cc3)s2)c1
4.67 µM: TGI (SF-268 CNS)
5.78 µM: TGI (A498 renal)
3.2 µM: TGI (DU-145 prostate)
inactive: GI50 (KM12 colon) 1.71 µM | GI50 (DU-145 prostate) 1.77 µM | GI50 (A498 renal) 1.39 µM | GI50 (SF-539 CNS) 1.7 µM | GI50 (SK-MEL-5 melanoma) 4.61 µM | GI50 (HS 578T breast) 2.3 µM | GI50 (SNB-75 CNS) 1.78 µM | GI50 (NCI-H226 lung) 4.16 µM | GI50 (BT-549 breast) 9.24 µM | GI50 (SK-MEL-28 melanoma) 2.09 µM | GI50 (SF-268 CNS) 1.98 µM
4.69 µM: TGI (SK-MEL-28 melanoma)
3.12 µM: TGI (KM12 colon)
6.41 µM: TGI (HS 578T breast)
3.07 µM: TGI (SF-539 CNS)
7.93 µM: TGI (SNB-75 CNS)
> 100 µM: TGI (SK-MEL-5 melanoma) | TGI (NCI-H226 lung)
57.4 µM: TGI (BT-549 breast)
